Test results published in PubChem BioAssay AID1963435 (Molecular Pharmacology Branch, DTP, NCI, 2024).
Values belong to the compound of their own block, whether it stands above or below them.

Test system: PANC-1 complex spheroid growth, percent test/control
Experiment: Anticancer human tumor PANC-1 cell line growth inhibition [Asc];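 further: spheroids exposed to agents for 7 days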;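 on viability, T/C: percent viability relative to DMSO vehicle wells taken as 100%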
Details: for IC50: curve of first compound; for viability, T/C: stronger effect = lower value
Method: Multicellular complex tumor spheroid response to apoptosis pathway targeting inhibitors Alrizomadlin, Pelcitoclax, and Dasminapant in combination with a variety of drugs and investigational agents in selected tumor cell lines
The MDM2 inhibitor alrizomadlin, the Bcl-2/Bcl-xL inhibitor pelcitoclax, and the IAPs inhibitor dasminapant were evaluated both individually and in combination with standard of care and investigational anticancer small molecules within a complex spheroid model of solid tumors. . Complex spheroids include a stromal component modeled by human endothelial cells (HUVEC) and fibroblasts modeled by human mesenchymal stem cells (MSCs). The concentration ranges selected for each drug and investigational agent were based upon clinically achievable concentrations if the clinical Cmax of the agent was known.
Compounds. The drugs and investigational agents: alrizomadlin (APG-115; NSC831270), pelcitoclax (APG-1252; NSC835773), dasminapant (APG-1387;NSC834197), TAK-243 (NSC785004), copanlisib (NSC809693), olaparib (NSC753686), talazoparib (NSC767125), cobimetinib (NSC 768068), eltanexor (KPT-8602, NSC 794443), abemaciclib (NSC 768073), sotorasib (NSC818433), adagrasib (NSC 831453), MRTX-1133 (NSC 836407), Iadademestat (ORY1001, NSC 806812), and RMC-4630 (NSC839698), were obtained from the NCI Developmental Therapeutics Program Chemical Repository. The FDA-approved anticancer drug set is available from the Developmental Therapeutics Program at https://dtp.cancer.gov/organization/dscb/obtaining/available plates.htm. […] The stock solutions were prepared in dimethyl sulfoxide (DMSO, Sigma-Aldrich, St. Louis, MO, cat. D2650) at 800-fold the tested concentration and stored at -70 degrees C prior to their use. All drugs and investigational agents were tested over a range starting from a high concentration at or near the clinical Cmax and decreasing in half-log increments. If the clinical Cmax for an agent had not been determined, the highest concentration tested was 10 microM.
The patient-derived cancer (PDC) cell lines include five colon adenocarcinomas: 186277-243-T-J2-PDC, 616215-338-R-J1-PDC, 439559-082-T-J2-PDC, 463943-066-T-J2-PDC, and 519858-162-T-J1-PDC; three pancreatic carcinomas: 323965-272-R-J2-PDC, 521955-158-R6-J3-PDC, and 521955-158-R2-J5-PDC; two uterine sarcomas: 327498-152-R-J2-PDC and 993429-296-R-J1-PDC; two rhabdomyosarcomas: 755483-174-R-J1-PDC and 772245-204-R-J1-PDC; two soft tissue sarcomas: 126254-015-R-J1-PDC and 494315-158-R-J1-PDC; two malignant fibrous histiocytomas: 317291-083-R-J1-PDC and 596521-263-R-J1-PDC; two breast carcinomas: 171881-019-R-J1-PDC and 885512-296-R-J2-PDC; and one ovarian carcinoma: 6556581-035-R-J-PDC were obtained from the NCI PDMR, (https://pdmr.cancer.gov). The established cell lines HSSY-2 synovial sarcoma (RRID:CVCL 8719), SYO-1 synovial sarcoma (RRID:CVCL_7146), MPNST malignant peripheral neural sheath tumor were obtained from the Sloan Kettering Institute. The following established cell lines were purchased from the American Type Culture Collection (ATCC, Manassas, VA), Sor the received from the NCI repository:, PANC-1 pancreatic carcinoma (CRL-1469, RRID:CVCL_0480), OVCAR-5 ovarian carcinoma (RRID:CVCL_1628), OVCAR-8 ovarian carcinoma (RRID:CVCL_1629), , MCF-7 breast carcinoma (CRL-12584, RRID:CVCL_0031), MDA-MB-231 breast carcinoma (CRL-12532, RRID:CVCL_0062), NCI-H1876 small cell lung carcinoma (CRL-5902, RRID:CVCL_1503), NCI-H510A small cell lung carcinoma (HTB-184, RRID:CVCL_1565), NCI-H1417 (CRL-5869, RRID:CVCL_1469), and NCI-H196 small cell lung carcinoma (CRL-5823, RRID:CVCL_1509). Dr. Peter Houghton (Greehey Children's Cancer Research Institute, University of Texas Health Science Center, San Antonio, TX) provided Rh-18 rhabdomyosarcoma (RRID:CVCL_1659). Pooled donor human umbilical vein endothelial cells (HUVEC, Lonza, cat. CC-2519) and human mesenchymal stem cells (hMSC, Lonza, cat. PT-2501) were purchased from Lonza (Walkersville, MD).
Cell Culture. […]

- IC50 (second compound 0.0316 µM): 536 nM
- IC50 (second compound 0.1 µM): 420 nM
- IC50 (second compound 0.316 µM): 314 nM
- IC50 (second compound 1 µM): 304 nM
- IC50 (second compound 3.16 µM): 282 nM
- IC50 (second compound 10 µM): 264 nM
SMILES: COc1c(OCCCN2CCOCC2)ccc2c3n(c(=NC(=O)c4cnc(N)nc4)nc12)CCN3 + Cc1c(S(C)(=O)=O)c(-c2cc(F)cc(N3CCN(c4ccc(NS(=O)(=O)c5ccc(NC(CCN6CCC(C(=O)OCCCP(=O)(O)O)CC6)CSc6ccccc6)c(S(=O)(=O)C(F)(F)F)c5)cc4)CC3)c2)c(-c2ccc(Cl)cc2)n1C(C)C
- viability, T/C (second compound 0.0316 µM, first compound 0.00316 µM): 103%
- viability, T/C (second compound 0.0316 µM, first compound 0.01 µM): 98.5%
- viability, T/C (second compound 0.0316 µM, first compound 0.0316 µM): 95.7%
- viability, T/C (second compound 0.0316 µM, first compound 0.1 µM): 73.7%
- viability, T/C (second compound 0.0316 µM, first compound 0.316 µM): 69.4%
- viability, T/C (second compound 0.0316 µM, first compound 1 µM): 32.6%
- viability, T/C (second compound 0.1 µM, first compound 0.00316 µM): 98%
- viability, T/C (second compound 0.1 µM, first compound 0.01 µM): 105%
- viability, T/C (second compound 0.1 µM, first compound 0.0316 µM): 94.7%
- viability, T/C (second compound 0.1 µM, first compound 0.1 µM): 72.8%
- viability, T/C (second compound 0.1 µM, first compound 0.316 µM): 60.2%
- viability, T/C (second compound 0.1 µM, first compound 1 µM): 28.5%
- viability, T/C (second compound 0.316 µM, first compound 0.00316 µM): 107%
- viability, T/C (second compound 0.316 µM, first compound 0.01 µM): 106%
- viability, T/C (second compound 0.316 µM, first compound 0.0316 µM): 91.1%
- viability, T/C (second compound 0.316 µM, first compound 0.1 µM): 58.2%
- viability, T/C (second compound 0.316 µM, first compound 0.316 µM): 59%
- viability, T/C (second compound 0.316 µM, first compound 1 µM): 25.7%
- viability, T/C (second compound 1 µM, first compound 0.00316 µM): 104%
- viability, T/C (second compound 1 µM, first compound 0.01 µM): 97.8%
- viability, T/C (second compound 1 µM, first compound 0.0316 µM): 99.8%
- viability, T/C (second compound 1 µM, first compound 0.1 µM): 67.4%
- viability, T/C (second compound 1 µM, first compound 0.316 µM): 52.9%
- viability, T/C (second compound 1 µM, first compound 1 µM): 24.1%
- viability, T/C (second compound 3.16 µM, first compound 0.00316 µM): 122%
- viability, T/C (second compound 3.16 µM, first compound 0.01 µM): 106%
- viability, T/C (second compound 3.16 µM, first compound 0.0316 µM): 86.8%
- viability, T/C (second compound 3.16 µM, first compound 0.1 µM): 65.8%
- viability, T/C (second compound 3.16 µM, first compound 0.316 µM): 53.8%
- viability, T/C (second compound 3.16 µM, first compound 1 µM): 23.9%
- viability, T/C (second compound 10 µM, first compound 0.00316 µM): 171%
- viability, T/C (second compound 10 µM, first compound 0.01 µM): 198%
- viability, T/C (second compound 10 µM, first compound 0.0316 µM): 131%
- viability, T/C (second compound 10 µM, first compound 0.1 µM): 78.1%
- viability, T/C (second compound 10 µM, first compound 0.316 µM): 52.5%
- viability, T/C (second compound 10 µM, first compound 1 µM): 31.7%

- IC50 (second compound 0.00316 µM): > 3000 nM
- IC50 (second compound 0.01 µM): > 3000 nM
- IC50 (second compound 0.0316 µM): > 3000 nM
- IC50 (second compound 0.1 µM): > 3000 nM
- IC50 (second compound 0.316 µM): > 3000 nM
- IC50 (second compound 1 µM): > 3000 nM
SMILES: Cc1nc(N2CCC3(CC2)COC(C)C3N)c(CO)nc1Sc1ccnc(N)c1Cl (centres undefined) + CNC(C)C(=O)NC1CN(S(=O)(=O)c2cccc(S(=O)(=O)N3CCC4CCC(C(=O)NC(c5ccccc5)c5ccccc5)N4C(=O)C(NC(=O)C(C)NC)C3)c2)CCC2CCC(C(=O)NC(c3ccccc3)c3ccccc3)N2C1=O
- viability, T/C (second compound 0.00316 µM, first compound 0.00949 µM): 94.8%
- viability, T/C (second compound 0.00316 µM, first compound 0.03 µM): 85%
- viability, T/C (second compound 0.00316 µM, first compound 0.0949 µM): 96.7%
- viability, T/C (second compound 0.00316 µM, first compound 0.3 µM): 84.3%
- viability, T/C (second compound 0.00316 µM, first compound 0.949 µM): 87.7%
- viability, T/C (second compound 0.00316 µM, first compound 3 µM): 87.1%
- viability, T/C (second compound 0.01 µM, first compound 0.00949 µM): 91.1%
- viability, T/C (second compound 0.01 µM, first compound 0.03 µM): 82.6%
- viability, T/C (second compound 0.01 µM, first compound 0.0949 µM): 79.7%
- viability, T/C (second compound 0.01 µM, first compound 0.3 µM): 89.4%
- viability, T/C (second compound 0.01 µM, first compound 0.949 µM): 85.8%
- viability, T/C (second compound 0.01 µM, first compound 3 µM): 95.1%
- viability, T/C (second compound 0.0316 µM, first compound 0.00949 µM): 93.4%
- viability, T/C (second compound 0.0316 µM, first compound 0.03 µM): 79.9%
- viability, T/C (second compound 0.0316 µM, first compound 0.0949 µM): 92.8%
- viability, T/C (second compound 0.0316 µM, first compound 0.3 µM): 86.3%
- viability, T/C (second compound 0.0316 µM, first compound 0.949 µM): 87.6%
- viability, T/C (second compound 0.0316 µM, first compound 3 µM): 78.9%
- viability, T/C (second compound 0.1 µM, first compound 0.00949 µM): 85.3%
- viability, T/C (second compound 0.1 µM, first compound 0.03 µM): 93%
- viability, T/C (second compound 0.1 µM, first compound 0.0949 µM): 90%
- viability, T/C (second compound 0.1 µM, first compound 0.3 µM): 83.8%
- viability, T/C (second compound 0.1 µM, first compound 0.949 µM): 90.9%
- viability, T/C (second compound 0.1 µM, first compound 3 µM): 89.5%
- viability, T/C (second compound 0.316 µM, first compound 0.00949 µM): 89.5%
- viability, T/C (second compound 0.316 µM, first compound 0.03 µM): 84.1%
- viability, T/C (second compound 0.316 µM, first compound 0.0949 µM): 86.7%
- viability, T/C (second compound 0.316 µM, first compound 0.3 µM): 84.4%
- viability, T/C (second compound 0.316 µM, first compound 0.949 µM): 83.4%
- viability, T/C (second compound 0.316 µM, first compound 3 µM): 81.2%
- viability, T/C (second compound 1 µM, first compound 0.00949 µM): 86.5%
- viability, T/C (second compound 1 µM, first compound 0.03 µM): 89.8%
- viability, T/C (second compound 1 µM, first compound 0.0949 µM): 82.6%
- viability, T/C (second compound 1 µM, first compound 0.3 µM): 82.7%
- viability, T/C (second compound 1 µM, first compound 0.949 µM): 75.6%
- viability, T/C (second compound 1 µM, first compound 3 µM): 85.9%
